Where two headings read alike, the source gives them in different places. Some results are limits rather than exact numbers.

For one data set, the target named is T1, TDP-43 protein (Homo sapiens, UniProt Q13148).
T1 construct: BiFC fluorescent-protein fragments (two complementary halves); expressed in transfected cells
Briefly: TDP-43 aggregation inhibition in TDP-43-BiFC cell model (Forskolin-induced). In kind it is cell-based. The following applies: for inhibition at 3 µM: read-out: TDP-43 protein aggregation inhibitory effect: Aggregation inhibitory effect (%) (@3 uM). A digest of the protocol:
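Forskolin (30 µM) co-treated with compound (screen 3 and 10 µM; dose-response 0.003–10 µM) for 48 h. BiFC fluorescence normalised to Forskolin-only (100% aggregation) minus untreated; viability from Hoechst-stained nuclei count vs Forskolin-only. IC50 by nonlinear regression.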

In another data set the target is T2, Tau (Homo sapiens, UniProt P10636).
T2 construct: BiFC fluorescent-protein fragments (two complementary halves on two tau copies); expressed in transfected cells
Nature of the data set: Tau aggregation inhibition in Tau-BiFC cell model (Forskolin-induced). In kind it is cell-based. In outline: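 Tau-BiFC cells were co-treated with compound (1, 3, 10 µM for screening; 0.03–30 µM for IC50) and 30 µM Forskolin for 48 h. BiFC fluorescence was normalised to the Forskolin-only window for aggregation; viability came from Hoechst-stained nuclei counts relative to Forskolin-only (100%). IC50 was derived by nonlinear regression.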

Data set [1] can be described thus: Liver microsomal stability, mouse. Format: in vitro ADME. The following applies: 1 µM compound; 0.5 mg/mL microsomes; NADPH; 30 minutes at 37°C. How it is done:
Liver microsomal stability by the compounds prepared according to Examples 1 to 46 was confirmed. Specifically, four types of liver microsomes (human, dog, rat, and mouse each at 0.5 mg/mL), 0.1 M phosphate buffer solution (pH 7.4), and the compounds at 1 µM concentration were added and pre-incubated at 37°C for 5 minutes, and then NADPH generation system solution was added and incubated at 37°C for an additional 30 minutes. Thereafter, an acetonitrile solution containing an internal standard (chloropropamide) was added to terminate the reaction, and after centrifugation for 5 minutes (14,000 rpm, 4°C), the supernatant was injected into an LC-MS/MS system to analyze the substrate drug, thereby evaluating the metabolic stability of 8 compounds.
The amount of remaining substrate through the reaction was analyzed using a Shimadzu Nexera XR system and TSQ vantage (Thermo). A Kinetex XB-C18 (2.1 × 100 mm, 2.6 µm, particle size; Phenomenex, USA) was used as the HPLC column, and (A) distilled water containing 0.1% formic acid and (B) acetonitrile containing 0.1% formic acid were used as mobile phases. Analyst software (version 1.6.3) and Xcalibur (version 1.6.1) were used for data analysis. The calculated results are shown in Table 5 below: Liver microsomal stability data of novel compounds from […] (human, rat, and mouse).

Setting [2] is: read-out: Tau aggregation inhibitory effect IC50, Tau-BiFC cell line, Forskolin 30 µM, 48 hours, 0.03-30 µM.

T2 sequence (P10636 1-441 isoform P10636-8): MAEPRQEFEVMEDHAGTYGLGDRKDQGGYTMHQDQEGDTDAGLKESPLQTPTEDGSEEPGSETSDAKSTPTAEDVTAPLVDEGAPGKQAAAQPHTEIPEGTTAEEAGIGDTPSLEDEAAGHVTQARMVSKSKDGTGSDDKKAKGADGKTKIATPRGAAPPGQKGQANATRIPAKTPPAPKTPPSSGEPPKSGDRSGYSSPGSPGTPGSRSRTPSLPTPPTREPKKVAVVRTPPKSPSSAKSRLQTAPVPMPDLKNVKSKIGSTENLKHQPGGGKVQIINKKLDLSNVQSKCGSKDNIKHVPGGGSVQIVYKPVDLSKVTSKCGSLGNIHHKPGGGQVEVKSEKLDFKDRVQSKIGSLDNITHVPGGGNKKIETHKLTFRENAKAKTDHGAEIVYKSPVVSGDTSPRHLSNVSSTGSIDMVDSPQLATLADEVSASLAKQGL
T1 sequence (Q13148 whole entry, the tested form may be a part): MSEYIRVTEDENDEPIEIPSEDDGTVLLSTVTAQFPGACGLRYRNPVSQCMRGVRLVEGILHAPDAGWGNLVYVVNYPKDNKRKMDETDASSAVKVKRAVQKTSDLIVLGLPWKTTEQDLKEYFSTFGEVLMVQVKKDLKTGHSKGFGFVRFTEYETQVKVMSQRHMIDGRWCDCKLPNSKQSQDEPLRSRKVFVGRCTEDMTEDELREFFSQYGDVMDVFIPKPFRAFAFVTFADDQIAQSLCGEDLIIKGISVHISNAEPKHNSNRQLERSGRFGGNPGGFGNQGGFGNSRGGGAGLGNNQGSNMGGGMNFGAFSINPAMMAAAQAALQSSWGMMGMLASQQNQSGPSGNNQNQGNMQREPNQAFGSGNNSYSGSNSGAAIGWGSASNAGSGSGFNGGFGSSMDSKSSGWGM

Regarding `Cn1c(N2CCOCC2)nc2ccc(NN=C(C#N)C#N)cc21` [Compound 5, (1-methyl-2-morpholino-1H-benzo[d]imidazol-6-yl)carbonohydrazonoyl dicyanide], the inhibition at 3 µM at TDP-43 protein is 94.7%. Moreover, on Tau, the IC50 is 32 nM. The “Mouse microsomes (% remaining)” value in data set [1] was 91.9 % remaining.

For the compound `CC1CN(c2nc3ccc(NN=C(C#N)C#N)cc3s2)CC(C)O1` (stereo not shown) [Compound 10, (2-(2,6-dimethylmorpholino)benzo[d]thiazol-6-yl)carbonohydrazonoyl dicyanide], at TDP-43 protein, the inhibition at 3 µM is 100%. The compound further yielded an IC50 against Tau of 24 nM. In data set [1], the “Mouse microsomes (% remaining)” value was found to be 87.3 % remaining.

Take `N#CC(C#N)=NNc1ccc2nc(N3CCOCC3)sc2c1` [Compound 2, (2-morpholinobenzo[d]thiazol-6-yl)carbonohydrazonoyl dicyanide]: the inhibition at 3 µM on TDP-43 protein was found to be 100%. Moreover, half-maximal inhibition against Tau (IC50) required 4 nM. Moreover, the “Mouse microsomes (% remaining)” value in data set [1] amounted to 94.10 % remaining.

For the compound `CC1COCCN1c1nc2ccc(NN=C(C#N)C#N)cc2o1` (stereo not shown) [Compound 16, (2-(3-methylmorpholino)benzo[d]oxazol-6-yl)carbonohydrazonoyl dicyanide], the inhibition at 3 µM on TDP-43 protein amounted to 100%. Also, the IC50 on Tau was 49 nM. Also, the “Mouse microsomes (% remaining)” value in data set [1] turned out to be 89.5 % remaining.

For `COC1CCN(c2nc3ccc(NN=C(C#N)C#N)cc3o2)CC1` [Compound 17, (2-(4-methoxypiperidin-1-yl)benzo[d]oxazol-6-yl)carbonohydrazonoyl dicyanide], the inhibition at 3 µM at TDP-43 protein came to 100%. The compound also registered an IC50 at Tau of 88 nM. In addition, the “Mouse microsomes (% remaining)” value in data set [1] is on record as above 100 % remaining.

`N#CC(C#N)=NNc1ccc2nc(NC(=O)N3CC4CCC(C3)O4)sc2c1` [Compound 40, (2-(8-oxa-3-azabicyclo[3.2.1]octane-3-carboxamido)benzo[d]thiazol-6-yl)carbonohydrazonoyl dicyanide]: on TDP-43 protein, the inhibition at 3 µM stood at 67.7%. Moreover, the IC50 on Tau (setting [2]) is 316 nM. Besides, the “Mouse microsomes (% remaining)” value in data set [1] was determined as 93.4 % remaining.

Turning to `CC1CN(c2nc3ccc(NN=C(C#N)C#N)cc3o2)CC(C)O1` (stereo not shown) [Compound 18, (2-(2,6-dimethylmorpholino)benzo[d]oxazol-6-yl)carbonohydrazonoyl dicyanide], on TDP-43 protein, the inhibition at 3 µM worked out at 98.6%. Besides, the IC50 on Tau stood at 128 nM. For the same compound, in data set [1], the “Mouse microsomes (% remaining)” value is given as 86.2 % remaining.

Consider `N#CC(C#N)=NNc1ccc2nc(N3CC[C@@H](F)C3)oc2c1` [Compound 41, (R)-(2-(3-fluoropyrrolidin-1-yl)benzo[d]oxazol-6-yl)carbonohydrazonoyl dicyanide], for which the inhibition at 3 µM at TDP-43 protein turned out to be 87.8%. The IC50 at Tau (setting [2]) stood at 260 nM. Besides, the “Mouse microsomes (% remaining)” value in data set [1] turned out to be 65.3 % remaining.

For the compound `N#CC(C#N)=NNc1ccc2oc(N3CCOCC3)nc2c1` [Compound 3, (2-morpholinobenzo[d]oxazol-5-yl)carbonohydrazonoyl dicyanide], at TDP-43 protein, the inhibition at 3 µM worked out at 79.6%. Also, on Tau, the IC50 was 20 nM. The “Mouse microsomes (% remaining)” value in data set [1] was found to be 80.6 % remaining.

`N#CC(C#N)=NNc1ccc2nc(N3CC4CCC(C3)O4)sc2c1` [Compound 23, (2-(8-oxa-3-azabicyclo[3.2.1]octan-3-yl)benzo[d]thiazol-6-yl)carbonohydrazonoyl dicyanide]: on TDP-43 protein, half-maximal inhibition (IC50) was put at 107 nM and the inhibition at 3 µM was determined as 99.2%. The compound also gave an IC50 at Tau of 48 nM. Further, the “Mouse microsomes (% remaining)” value in data set [1] is listed as 86.6 % remaining.

Turning to `N#CC(C#N)=NNc1ccc2nc(N3C4CCC3COC4)sc2c1` [Compound 11, (2-(3-oxa-8-azabicyclo[3.2.1]octan-8-yl)benzo[d]thiazol-6-yl)carbonohydrazonoyl dicyanide], the inhibition at 3 µM on TDP-43 protein is 100%. Moreover, the IC50 on Tau came to 32 nM. Further, in data set [1], the “Mouse microsomes (% remaining)” value amounted to 87.8 % remaining.

Values taken from EP4737445A1, “NOVEL SATURATED HETEROCYCLE-SUBSTITUTED HETEROARYL-CARBONOHYDRAZONOYL DICYANIDE COMPOUND AND USE THEREOF” (Korea Institute of Science and Technology, priority 2023, dated 2025).
